Data on three molecules can be found in PMC7252906 (Toxicology and applied pharmacology, 2019).

Each structure is given as a SMILES string. “And” between values parts separate entries of the source, which are not always exact repeats. Identical values can stand only once. Like-named read-outs stand apart in the source and are kept apart here.

Data set [1] can be described thus: Radiochemical HPLC profiling of urine after [^14C]DMAE. The note with it: Oral.
Assay in data set [2]: as above
It counts as in vivo, Harlan Sprague Dawley rats.

A short description of data set [3]: Formation of N,N-dimethylnitrosamine after oral DMAE. The note with it: rats, oral DMAE 10 to 500 mg/kg; limit of quantitation 5 pg/mL. It counts as in vivo.
For data set [4] the following is noted: female mice, gavage 160 mg/kg, 24 h.
Another data set has as its system rodents. The note with it: ref NTP 2002; cited from earlier work.
For data set [5] the following is noted: for residual radioactivity remaining in tissues (excluding GI tract): male and female rats.
The mark [6] stands for this setting: DMAE dose 0, listed as [^14C]choline, 160 mg/kg.
Where [7] appears, read: DMAE pre-treatment 500 mg/kg, 1 h prior.
The mark [8] stands for this setting: female rats, IV 16 mg/kg, 24 h, DMAE dose 0.
Setting [9] is: female rats, IV 16 mg/kg, 24 h, DMAE dose 0, listed as [^14C]choline, 16 mg/kg.
[10] abbreviates: female rats, gavage 160 mg/kg, 24 h, DMAE dose 0.
The mark [11] stands for this setting: female rats, gavage 160 mg/kg, 24 h, DMAE dose 0, listed as [^14C]choline, 160 mg/kg.
[12] abbreviates: female rats, gavage 160 mg/kg, 24 h, DMAE pre-treatment 100 mg/kg.
Where [13] appears, read: female rats, gavage 160 mg/kg, 24 h, DMAE pre-treatment 500 mg/kg.
Setting [14] is: male rats, IV 16 mg/kg, 24 h, DMAE dose 0.
The mark [15] stands for this setting: male rats, gavage 160 mg/kg, 24 h, DMAE dose 0.
The mark [16] stands for this setting: male rats, gavage 160 mg/kg, 24 h, DMAE pre-treatment 100 mg/kg, 1 h prior.
The mark [17] stands for this setting: male rats, gavage 160 mg/kg, 24 h, DMAE pre-treatment 500 mg/kg, 1 h prior.
[18] abbreviates: male rats, gavage 160 mg/kg, 24 h, three DMAE pre-treatments 100 mg/kg 48, 24 and 1 h prior.

As to `C[N+](C)([O-])CCO` [DMAE Oxide], the “Estimated percentage of area of DMAE Oxide peak in urine chromatogram” value is recorded as 92% in data set [1] (Mouse/Female, [^14C]DMAE 10 mg/kg); 18% in data set [1] (Mouse/Female, [^14C]DMAE 100 mg/kg); 34% in data set [1] (Mouse/Female, [^14C]DMAE 500 mg/kg); 0% in data set [1] (Mouse/Male, [^14C]DMAE 500 mg/kg); “absent” in data set [1] (Mouse/Male, [^14C]DMAE 500 mg/kg, listed as DMAE oxide); 45% in data set [2] (Rat/Female, [^14C]DMAE 500 mg/kg, Oral). Moreover, the “Estimated percentage of area of DMAE Oxide peak in urine chromatogram” value in data set [2] (Rat/Male, [^14C]DMAE 10 mg/kg, IV) was 97%; in data set [2] (Rat/Male, [^14C]DMAE 10 mg/kg, Oral), 5%; in data set [2] (Rat/Male, [^14C]DMAE 100 mg/kg, Oral) it was 44%; in data set [2] (Rat/Male, [^14C]DMAE 500 mg/kg, Oral), 66%.
Regarding `CN(C)N=O` [N,N-dimethylnitrosamine], the “N,N-dimethylnitrosamine detection” value in data set [3] is on record as “not detected”.
`C[N+](C)(C)CCO` [choline, N,N,N-trimethylaminoethanol]: the “% Dose Recovered, Tissues and GI Tract (includes contents)” value in data set [4] (DMAE dose 0) was 18.2 ± 2.90 % dose; in data set [4] (setting [7]), 18.4 ± 9.80 % dose; in data set [5] (setting [8]), 54.0 ± 5.50 % dose; in data set [5] (setting [10]), 26.1 ± 3.80 % dose; in data set [5] (setting [12]) it was 24.7 ± 2.70 % dose; in data set [5] (setting [13]), 25.9 ± 4.70 % dose. Also, the “% Dose Recovered, Tissues and GI Tract (includes contents)” value was 56.2 ± 9.90 % dose in data set [5] (setting [14]); 21.4 ± 2.80 % dose in data set [5] (setting [15]); 20.4 ± 5.60 % dose in data set [5] (setting [16]); 20.0 ± 3.80 % dose in data set [5] (setting [17]); 26.6 ± 5.30 % dose in data set [5] (setting [18]). Moreover, the “% Dose Recovered, CO2” value in data set [4] (setting [6]) is 25 % dose and 24.5 ± 5.40 % dose; in data set [4] (setting [7]), 26.4 ± 8.60 % dose; in data set [5] (setting [8]), 28.1 ± 2.90 % dose; in data set [5] (setting [11]), 18 % dose and 17.8 ± 1.70 % dose; in data set [5] (setting [13]), 22.4 ± 3.60 % dose; in data set [5] (setting [14]) it was 17.4 ± 2.40 % dose. In addition, the “% Dose Recovered, CO2” value in data set [5] (male rats, gavage 160 mg/kg, 24 h, DMAE dose 0, listed as [^14C]choline, 160 mg/kg) turned out to be 12.5 ± 2.20 % dose; in data set [5] (setting [16]), 12.4 ± 1.70 % dose; in data set [5] (setting [17]) it was 15.1 ± 4.00 % dose; in data set [5] (setting [18]), 17.0 ± 1.70 % dose. For the same molecule, the “% Dose Recovered, Urine” value in data set [4] (setting [6]) is 32 % dose and 31.8 ± 11.1 % dose; in data set [4] (DMAE pre-treatment 500 mg/kg, 1 h prior, listed as [^14C]choline), 32 % dose and 32.4 ± 7.20 % dose; in data set [5] (setting [9]) it was 7 % dose and 7.45 ± 2.58 % dose; in data set [5] (setting [11]) it was 34 % dose and 34.2 ± 7.90 % dose; in data set [5] (setting [13]), 43.3 ± 5.60 % dose; in data set [5] (male rats, IV 16 mg/kg, 24 h, DMAE dose 0, listed as [^14C]choline, 16 mg/kg), 4 % dose and 3.92 ± 0.850 % dose. In addition, the “% Dose Recovered, Urine” value in data set [5] (setting [16]) amounted to 31.9 ± 4.60 % dose; in data set [5] (setting [17]), 40.7 ± 6.30 % dose; in data set [5] (setting [18]) it was 39.9 ± 3.80 % dose. Moreover, the “% Dose Recovered, VOCs” value in data set [4] (setting [6]) was 4 % dose and 3.61 ± 3.75 % dose; in data set [4] (setting [7]), 2.41 ± 1.77 % dose; in data set [5] (setting [8]) it was 0.284 ± 0.038 % dose; in data set [5] (setting [10]), 0.325 ± 0.025 % dose; in data set [5] (setting [12]), 0.268 ± 0.026 % dose; in data set [5] (setting [13]), 0.227 ± 0.057 % dose. Besides, the “% Dose Recovered, VOCs” value in data set [5] (setting [14]) is recorded as 0.139 ± 0.035 % dose; in data set [5] (setting [16]) it was 0.018 ± 0.003 % dose; in data set [5] (setting [17]), 0.065 ± 0.002 % dose; in data set [5] (setting [18]), “below the limit of detection”. For the same molecule, the “recovery in tissues (excluding GI tract)” value in data set [4] ([^14C]choline alone) turned out to be 15%. The “oral LD50” value in the data set with rodents is recorded as 3400 to 3900 mg/kg. Also, the “% Dose Recovered, Total Recovered” value in data set [5] (setting [9]) came to 90.1 ± 6.10 % dose; in data set [5] (setting [10]), 91.3 ± 9.60 % dose; in data set [5] (setting [12]), 92.9 ± 4.80 % dose; in data set [5] (setting [13]) it was 94.1 ± 4.80 % dose; in data set [5] (setting [15]) it was 88.2 ± 5.50 % dose; in data set [5] (setting [18]) it was 93.7 ± 2.70 % dose. In addition, the “dose recovered in tissues (excluding GI tract)” value in data set [5] (setting [12]) is given as 21%; in data set [5] (male rats, gavage 160 mg/kg, 24 h, [^14C]choline alone), ~ 18%. Also, the “recovery in tissues other than the GI tract” value in data set [5] (female rats, gavage 160 mg/kg, 24 h, [^14C]choline alone) is ~ 21%. Moreover, the total dose recovered in data set [5] (female rats, gavage 160 mg/kg, range over groups) was 91–94%. Further, the “residual radioactivity remaining in tissues (excluding GI tract)” value in data set [5] (IV 16 mg/kg, 24 h) is given as 48–49%; in data set [5] (oral gavage, 24 h) it was 17–21%. Besides, in data set [5] (male rats, gavage 160 mg/kg, 24 h, pre-treatment with multiple doses of 100 mg/kg or a single dose of 500 mg/kg DMAE), the “dose recovered in feces” value is reported as 10–12%.
